Test results reported in PubChem BioAssay (NCI).
≈ marks a conversion by molar mass, not a printed value.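 Five concentrations, 48 hours, 96-well plates. Here, GI50 denotes the concentration required for 50% inhibition of growth. TGI: total growth inhibition.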

Tests used:
Test in all cases: NCI-60 cell line screen, 48 h
786-0 renal = test system: 786-0 renal
COLO 205 colon = test system: COLO 205 colon
K-562 leukemia = test system: K-562 leukemia
LOX IMVI melanoma = test system: LOX IMVI melanoma
MDA-MB-231 breast = test system: MDA-MB-231 breast
NCI-H226 lung = test system: NCI-H226 lung
RPMI-8226 leukemia = test system: RPMI-8226 leukemia
SNB-19 CNS = test system: SNB-19 CNS
T-47D breast = test system: T-47D breast
UO-31 renal = test system: UO-31 renal

| SMILES | TGI (786-0 renal) | TGI (COLO 205 colon) | TGI (K-562 leukemia) | TGI (LOX IMVI melanoma) | TGI (MDA-MB-231 breast) | TGI (NCI-H226 lung) | TGI (RPMI-8226 leukemia) | TGI (SNB-19 CNS) | TGI (T-47D breast) | TGI (UO-31 renal) | GI50 (COLO 205 colon) | GI50 (K-562 leukemia) | GI50 (LOX IMVI melanoma) | GI50 (NCI-H226 lung) | GI50 (RPMI-8226 leukemia) | GI50 (SNB-19 CNS) | GI50 (T-47D breast) | GI50 (UO-31 renal) | GI50 (MDA-MB-231 breast) |
| --- | --- | --- | --- | --- | --- | --- | --- | --- | --- | --- | --- | --- | --- | --- | --- | --- | --- | --- | --- |
| NC(N)=NS(=O)(=O)c1ccc(NC(=O)c2ccc3nc4ccccc4c(Nc4ccc(S(N)(=O)=O)cc4)c3c2)cc1 | > 100 µM | > 100 µM | > 100 µM | > 100 µM | > 100 µM | > 100 µM | > 100 µM | > 100 µM | > 100 µM | > 100 µM |  |  |  |  |  |  |  |  |  |
| Cn1c2ccccc2c2c3c(c4c5ccccc5n(C)c4c21)C(=O)c1ccccc1C3=O | 31.7 µM | > 100 µM |  | > 100 µM | 79.1 µM | > 100 µM | > 100 µM | 52.4 µM | > 100 µM | > 100 µM |  |  |  |  |  |  |  |  |  |
| CCO/C(O)=C(/C(=N)N1CCCC1)C(=O)Nc1cccc(C(F)(F)F)c1 | > 100 µM | > 100 µM | > 100 µM | > 100 µM | > 100 µM | 83.7 µM | > 100 µM | > 100 µM | > 100 µM |  |  |  |  |  |  |  |  |  |  |
| O=C(NCc1ccc(Cl)cc1)c1cc2sccc2nc1C(F)(F)F | 39.8 µM | > 100 µM | > 100 µM |  | > 100 µM | 50 µM | > 100 µM | 51.7 µM | > 100 µM | > 100 µM |  |  |  |  |  |  |  |  |  |
| COc1cc(C2S/C(=C/c3ccccc3)C(=O)N2c2ccc(Cl)c(Cl)c2)cc(OC)c1OC (stereo not drawn) | > 100 µM | > 100 µM | > 100 µM | > 100 µM | > 100 µM | > 100 µM | > 100 µM | > 100 µM | > 100 µM | > 100 µM |  |  |  |  |  |  |  |  |  |
| C/C(O)=C/c1nc2ccc([N+](=O)[O-])cc2nc1/C=C(/C)O | > 100 µM | > 100 µM | > 100 µM | > 100 µM | > 100 µM | > 100 µM | 65.1 µM | > 100 µM | 87.6 µM | > 100 µM |  |  |  |  |  |  |  |  |  |
| Cc1cc(=O)oc2cc(O)ccc12 | > 100 µM | > 100 µM | > 100 µM | > 100 µM | > 100 µM | > 100 µM | > 100 µM | > 100 µM | > 100 µM | > 100 µM |  |  |  |  |  |  |  |  |  |
| Clc1ccc(N=c2oc3ccccc3cc2-c2nc3ccccc3[nH]2)c(Cl)c1 |  |  | > 100 µM | > 100 µM |  |  | > 100 µM | > 100 µM | > 100 µM | > 100 µM |  |  |  |  |  |  |  |  |  |
| CSc1c(C#N)c2n(c3ccccc13)c1ccccc1[n+]2C | > 100 µM | 38.6 µM |  | > 100 µM | 60.1 µM |  | 85.6 µM |  | > 100 µM | 64.9 µM |  |  |  |  |  |  |  |  |  |
| NNC(=S)N1CCN(C(=S)NN)CC1 | > 100 µM | > 100 µM |  | > 100 µM | > 100 µM |  | > 100 µM | > 100 µM | > 100 µM | > 100 µM |  |  |  |  |  |  |  |  |  |
| Cc1ccc(S(=O)(=O)c2c(O)c3ccccc3n(C)c2=O)cc1 | > 100 µM | > 100 µM | > 100 µM |  | > 100 µM | > 100 µM | > 100 µM | > 100 µM | > 100 µM | > 100 µM |  |  |  |  |  |  |  |  |  |
| CC(=O)c1cc2ccccc2n(O)c1=N | > 100 µM | > 100 µM |  | > 100 µM | > 100 µM | > 100 µM |  |  | > 100 µM |  |  |  |  |  |  |  |  |  |  |
| COc1cc(S(=O)(=O)Nc2ccc(C3=NNC(c4ccccc4)C3)cc2)ccc1F (stereo not drawn) |  | > 100 µM | > 100 µM | > 100 µM |  | 61.3 µM | 73.1 µM | > 100 µM | > 100 µM | > 100 µM | 51.4 µM | 28.3 µM | 73.5 µM | 21.2 µM | 21.6 µM | > 100 µM | 54.2 µM | > 100 µM |  |
| Nc1cc(N2CCCC2)nc(=O)n1Cc1ccccc1 | > 100 µM | > 100 µM | > 100 µM | > 100 µM | > 100 µM | > 100 µM | > 100 µM | > 100 µM |  |  |  |  |  |  |  |  |  |  |  |
| O=C1/C(=C2\Sc3c(ccc(Cl)c3Cl)C2=O)Sc2c1ccc(Cl)c2Cl | > 100 µM | > 100 µM | > 100 µM |  | > 100 µM | > 100 µM | > 100 µM | > 100 µM | > 100 µM | > 100 µM |  |  |  |  |  |  |  |  |  |
| CC(=O)Oc1ccc(C2COc3cc(OC(C)=O)c(OC(C)=O)cc3C2)cc1 (stereo not drawn) |  | 35.4 µM | 51.7 µM | > 55.5 µM |  | 54.7 µM | 58.8 µM | > 100 µM |  | 59.4 µM |  |  |  |  |  |  |  |  |  |
| Oc1ccc(CCc2cc(O)cc(O)c2)cc1 | > 100 µM | > 100 µM | > 100 µM |  | > 100 µM | > 100 µM | > 100 µM | > 100 µM | > 100 µM | > 100 µM |  |  |  |  |  |  |  |  |  |
| Cc1cc(C)n(CN(Cn2nc(C)cc2C)C2CCCCC2)n1 | 48.9 µM | 32 µM |  | 46.3 µM | 64.2 µM |  | 38.9 µM | > 100 µM | 76.2 µM | 52.4 µM |  |  |  |  |  |  |  |  |  |
| O=C1C(Br)=C(c2ccccc2)S(=O)c2ccccc21 (stereo not drawn) | 7.62 µM | 3.95 µM | 11.8 µM | 28.2 µM | 29.2 µM | 40.7 µM |  | 39.9 µM | 10.6 µM | 27.2 µM |  |  |  |  |  |  |  |  |  |
| Cn1cnc2c(sc3nc4ccccc4n32)c1=N | > 100 µM | > 100 µM |  | > 100 µM | > 100 µM | > 100 µM | > 100 µM | > 100 µM | > 100 µM | > 100 µM |  |  |  |  |  |  |  |  |  |
| CC(C)OP(=O)(OC(C)C)C(C(C)C)N(C)/C(F)=N/C(F)(F)F (stereo not drawn) | > 100 µM | > 100 µM | > 100 µM | > 100 µM | > 100 µM | > 100 µM |  | > 100 µM | > 100 µM | > 100 µM |  |  |  |  |  |  |  |  |  |
| COc1cc(/C=C2/N=C(c3ccccc3)N(C3=NNC4(C(=O)N3)c3ccccc3-c3ccccc34)NC2=O)ccc1O |  | > 150 µg/mL | > 150 µg/mL | 66.8 µg/mL | 44.5 µg/mL |  | > 150 µg/mL | 87.3 µg/mL | 65 µg/mL | 111 µg/mL | 55.2 µg/mL | 48.6 µg/mL | 32.3 µg/mL |  | 50.2 µg/mL | 34.6 µg/mL | 17 µg/mL | 33.4 µg/mL | 19.3 µg/mL (≈ 34.6 µM) |
